Source: patent publication US20040242545A1, “Remedy for glaucoma comprising as the active ingredient compound having p13 kinase inhibitory effect” (Santen Phamaceutical Co., Ltd., priority 2001, published 2004)

Legend:
Type in all cases: in vivo
intraocular pressure [1] = test: Intraocular pressure measurement after administration into rabbit anterior chamber; conditions: for Difference of intraocular pressure, 2 hours after administration / Difference of intraocular pressure, 4 hours after administration / Difference of intraocular pressure, 6 hours after administration: vs just before administration; for Difference of intraocular pressure, 2 hours before administration: pre-dose value vs just before administration; for Difference of intraocular pressure, just before administration: reference time point; for Maximum breadth of the intraocular pressure reduction: on 6 hours after administration
Procedure: In order to examine the influence of the compound having a PI3 kinase blocking action upon the intraocular pressure reduction, measurement of intraocular pressure was conducted using an applanation tonometer or a pneumatic applanation tonometer. LY294002 and wortmannin were provided as test compounds. The former compound was dissolved in methanol to give the concentration of 10^-1 M, and thereto was added 2-hydroxypropyl-β-cyclodextrin as a solubilizer. This solution was diluted in physiological saline to give a LY294002 solution having the concentration of 10^-3 M. The amount of used 2-hydroxypropyl-β-cyclodextrin was determined to make the final concentration thereof to be 4×10^-3 M. Wortmannin was dissolved in dimethylsulfoxide to give the concentration of 10^-1 M for use in the test of administration into anterior chamber, and the obtained solution was diluted in physiological saline to give solutions having the concentration of 10^-4 M and 10^-5 M. Furthermore, dissolution of the compound was conducted in dimethylsulfoxide to give the concentration of 10^-1 M for use in the instillation test, and the obtained solution was diluted in physiological saline to give a 0.04284% (10^-3 M) solution in a suspension state. Rabbit intraocular pressure measurement: An electric current source of a tonometer (pneutonometer model 30 classic) was turned on, and calibration was conducted. […] injection needle was attached to a microsyringe, and a test compound solution or a vehicle was aspirated therein. A rabbit positioner made of aluminum for use in administration into anterior chamber was placed on a table made of aluminum. Further, a rabbit positioner made of wood for use in measurement of intraocular pressure was separately placed on the table made of aluminum. Administration into rabbit anterior chamber: A rabbit was placed on a rabbit positioner made of aluminum for use in administration into anterior chamber, and 0.4% oxybuprocaine hydrochloride was instilled to both eyes with one drop. After fixing an eye lid retractor, the bulbar conjunctiva was held with tweezers, and the needle point was passed from corneallimbus into corneal stroma in the […] direction with the depth of about 2 to 3 mm. Thereafter, the needlepoint was pierced into the anterior chamber, where the test compound solution was infused in an amount of 20 μL. […] Following the completion of the administration operation, the rabbit was brought back to the cage. The rabbit was brought out from the cage on two hours before the administration, just before the administration, and on 2, 4 and 6 hours after the administration, and was placed on the positioner made of wood. Oxybuprocaine hydrochloride at the concentration of 0.4% was instilled to both eyes, and intraocular pressure was measured after fixing the eye lid retractor. The vehicle was administered in a similar manner. Using the intraocular pressure just before the administration as a reference, results are shown by difference (mmHg) between the intraocular pressure of the reference and the intraocular pressure at each time point of the measurement. As obvious from Table 1, the intraocular pressure reduction was observed after the administration of LY294002. Maximum breadth of the intraocular pressure reduction (maximum value of the difference between values of the group administered with the vehicle and the group administered with the test compound) was observed on 6 hours after the administration of 10^-3 M LY294002, with the value of 3.7 mmHg.

intraocular pressure [2] = test: Intraocular pressure measurement after instillation to monkey
Procedure: (§1) In order to examine the influence of the compound having a PI3 kinase blocking action upon the intraocular pressure reduction, measurement of intraocular pressure was conducted using an applanation tonometer or a pneumatic applanation tonometer. Wortmannin was dissolved in dimethylsulfoxide to give the concentration of 10^−1 M for use in the test of administration into anterior chamber, and the obtained solution was diluted in physiological saline to give solutions having the concentration of 10^−4 M and 10^−5 M. Furthermore, dissolution of the compound was conducted in dimethylsulfoxide to give the concentration of 10^−1 M for use in the instillation test, and the obtained solution was diluted in physiological saline to give a 0.04284% (10^−3 M) solution in a suspension state. Monkey intraocular pressure measurement: Measurement of intraocular pressure was conducted using a pneumatic applanation tonometer (Alcon Japan. Ltd.). Test of instillation to monkey: The test compound solution in an amount of 20 μL was instilled to the eye to be administered. The measurement time of the intraocular pressure was on one hour before the administration, just before the administration, and on 2, 4 and 6 hours after the administration. Using the intraocular pressure just before the administration as a reference, results are shown by difference (mmHg) between the intraocular pressure of the reference and the intraocular pressure at each time point of the measurement. As obvious from Table 1, the intraocular pressure reduction was observed after the administration of LY294002. Maximum breadth of the intraocular pressure reduction (maximum value of the difference between values of the group administered with the vehicle and the group administered with the test compound) was observed on 6 hours after the administration of 10^−3 M LY294002, with the value of 3.7 mmHg.

intraocular pressure [3] = test: Intraocular pressure measurement after administration into monkey anterior chamber
Procedure: as §1, with “Ltd.). Administration into monkey anterior chamber:” for “Ltd.). Test of instillation to monkey:”, “The administration was carried out” for “The test compound solution”, “in accordance with the process for administering” for “in an amount of 20 μL was instilled”, “the rabbit.” for “the eye to be administered.”, “The dosage amount was 10 μL, and the” for “The”

[4] = 10^−3 M LY294002, 20 μL, mean of 6
[5] = 10^−4 M wortmannin, 20 μL, mean of 4
[6] = 10^−5 M wortmannin, 20 μL, mean of 4
[7] = instillation, 0.04284% (10^−3 M) wortmannin suspension, 20 μL, vs just before administration, mean of 5
[8] = 10^−4 M wortmannin, 10 μL, vs just before administration

O=c1cc(N2CCOCC2)oc2c(-c3ccccc3)cccc12 [LY294002, 2-(4-morpholinyl)-8-phenyl-4H-1-benzopyran-4-one]
Difference of intraocular pressure, 2 hours after administration (intraocular pressure [1]; [4]): −3.2 mmHg
Difference of intraocular pressure, 4 hours after administration (intraocular pressure [1]; [4]): −2.7 mmHg
Difference of intraocular pressure, 6 hours after administration (intraocular pressure [1]; [4]): −2.1 mmHg
Maximum breadth of the intraocular pressure reduction (maximum difference between vehicle group and test compound group) (intraocular pressure [1]; 10^−3 M LY294002, on 6 hours after administration): 3.7 mmHg
Difference of intraocular pressure, 2 hours before administration (intraocular pressure [1]; 10^−3 M LY294002 group, 20 μL, mean of 6): 1.9 mmHg
Difference of intraocular pressure, just before administration (intraocular pressure [1]; 10^−3 M LY294002 group, mean of 6): 0.0 mmHg

COC[C@H]1OC(=O)c2coc3c2[C@@]1(C)C1=C(C3=O)[C@@H]2CCC(=O)[C@@]2(C)C[C@H]1OC(C)=O [wortmannin]
Difference of intraocular pressure, 2 hours before administration (intraocular pressure [1]; 10^−4 M wortmannin group, 20 μL, mean of 4): 2.2 mmHg
Difference of intraocular pressure, just before administration (intraocular pressure [1]; 10^−4 M wortmannin group, mean of 4): 0.0 mmHg
Difference of intraocular pressure, 2 hours after administration (intraocular pressure [1]; [5]): −1.2 mmHg
Difference of intraocular pressure, 4 hours after administration (intraocular pressure [1]; [5]): −2.8 mmHg
Difference of intraocular pressure, 6 hours after administration (intraocular pressure [1]; [5]): −3.0 mmHg
Maximum breadth of the intraocular pressure reduction (intraocular pressure [1]; 10^−4 M wortmannin): 6.9 mm Hg
Difference of intraocular pressure, 2 hours before administration (intraocular pressure [1]; 10^−5 M wortmannin group, 20 μL, mean of 4): 1.2 mmHg
Difference of intraocular pressure, just before administration (intraocular pressure [1]; 10^−5 M wortmannin group, mean of 4): 0.0 mmHg
Difference of intraocular pressure, 2 hours after administration (intraocular pressure [1]; [6]): −1.5 mmHg
Difference of intraocular pressure, 4 hours after administration (intraocular pressure [1]; [6]): −1.0 mmHg
Difference of intraocular pressure, 6 hours after administration (intraocular pressure [1]; [6]): 0.6 mmHg
Maximum breadth of the intraocular pressure reduction (intraocular pressure [1]; 10^−5 M wortmannin): 3.3 mmHg
Maximum breadth of the intraocular pressure reduction (intraocular pressure [2]; instillation of wortmannin (0.04284%), on 4 hours after administration): 2.8 mmHg
Difference of intraocular pressure, 1 hours before administration (intraocular pressure [2]; instillation, 0.04284% (10^−3 M) wortmannin group, 20 μL, pre-dose value vs just before administration, mean of 5): 1.1 mmHg
Difference of intraocular pressure, 2 hours after administration (intraocular pressure [2]; [7]): −2.6 mmHg
Difference of intraocular pressure, 4 hours after administration (intraocular pressure [2]; [7]): −3.4 mmHg
Difference of intraocular pressure, 6 hours after administration (intraocular pressure [2]; [7]): −1.5 mmHg
Difference of intraocular pressure, just before administration (intraocular pressure [2]; instillation, 0.04284% wortmannin group, reference time point, mean of 5): 0.0 mmHg
Difference of intraocular pressure, 1 hours before administration (intraocular pressure [3]; 10^−4 M wortmannin group, 10 μL, pre-dose value vs just before administration): 0.7 mmHg
Difference of intraocular pressure, just before administration (intraocular pressure [3]; 10^−4 M wortmannin group, reference time point): 0.0 mmHg
Difference of intraocular pressure, 2 hours after administration (intraocular pressure [3]; [8]): −4.8 mmHg
Difference of intraocular pressure, 4 hours after administration (intraocular pressure [3]; [8]): −4.3 mmHg
Difference of intraocular pressure, 6 hours after administration (intraocular pressure [3]; [8]): −2.1 mmHg
Maximum intraocular pressure reduction (intraocular pressure [3]; wortmannin (10^−4 M), on 2 hours after administration): 4.5 mmHg
